The results in this text go back to patent US20230146455A1, “TREATMENT OF INFLAMMATORY DISEASES WITH PEPTIDES AND PHARMACEUTICAL COMPOSITIONS” (Yuyu Pharma, Inc., priority 2020, published 2023).

The assay relates to IL-2. Put plainly: Example 9 Luminex, LPS hPBMCs: IL-2. In kind it is cell-based, human. As to the method: Treatment Human PBMCs were pretreated with YY-101, YDE-011 and YDE-043 or reference compound; Xiidra® at various concentration (ranging from 1 nM to 100 uM) for 2 h before stimulation. An equal volume of 0.5% DMSO was used as a vehicle control. Then, the cells were treated with LPS at 5 ug/ml. The supernatants from treated cells were harvested at 24 h and placed in a 96 well for Luminex cytokine & chemokine profiling using a Luminex 200 multiplex assay (Luminex; R&D system, USA).
The main study arm with triplicate wells per group in a 24-well plate: • 1. Blank • 2. PBMC: 0.5% DMSO • 3. PBMC+LPS (5 ug/ml) • 4. PBMC+YY-101 100 uM • 5. PBMC+YY-101 10 uM • 6. PBMC+YY-101 1 uM • 7. PBMC+YY-101 0.1 uM • 8. PBMC+YY-101 0.01 uM • 9. PBMC+LPS (5 ug/ml)+Xiidra®100 uM • 10. PBMC+LPS (5 ug/ml)+Xiidra® 10 uM • 11. PBMC+LPS (5 ug/ml)+Xiidra® 1 uM • 12. PBMC+LPS (5 ug/ml)+Xiidra®0.1 uM • 13. PBMC+LPS (5 ug/ml)+Xiidra®0.01 uM • 14. PBMC+LPS (5 ug/ml)+Xiidra®0.001 uM • 15. PBMC+LPS (5 ug/ml)+YY-101 100 uM • 16. PBMC+LPS (5 ug/ml)+YY-101 10 uM • 17. PBMC+LPS (5 ug/ml)+YY-101 1 uM • 18. PBMC+LPS (5 ug/ml)+YY-101 0.1 uM • 19. PBMC+LPS (5 ug/ml)+YY-101 0.01 uM • 20. PBMC+LPS (5 ug/ml)+YY-101 0.001 uM • 21. PBMC+LPS (5 ug/ml)+YDE-011 100 uM • 22. PBMC+LPS (5 ug/ml)+YDE-011 10 uM • 23. PBMC+LPS (5 ug/ml)+YDE-011 1 uM • 24. PBMC+LPS (5 ug/ml)+YDE-011 0.1 uM • 25. PBMC+LPS (5 ug/ml)+YDE-011 0.01 uM • 26. PBMC+LPS (5 ug/ml)+YDE-011 0.001 uM • 27. PBMC+LPS (5 ug/ml)+YDE-043 100 uM • 28. PBMC+LPS (5 ug/ml)+YDE-043 10 uM • 29. PBMC+LPS (5 ug/ml)+YDE-043 1 uM • 30. PBMC+LPS (5 ug/ml)+YDE-043 0.1 uM • 31. PBMC+LPS (5 ug/ml)+YDE-043 0.01 uM • 32. PBMC+LPS (5 ug/ml)+YDE-043 0.001 uM
Multiplex assay was used to measure 30 cytokines and chemokines. The 1:2, 1:10 and 1:200 diluted cell supernatant and serial dilution of the standard were dispensed into a 96 well plate at 50 ul/well. Then, the pre-mixed cocktail of antibody-coated magnetic beads was dispensed at 50 ul/well and incubated at room temperature for 2 h in a horizontal orbital microplate shaker at 800±500 rpm. The beads were washed using a magnetic device to prevent loss. The biotin-antibody was dispensed in 50 ul of each well and incubated at room temperature for 1 h in a shaker at 800±500 rpm. After washing, streptavidin-PE was added at 50 ul/well and incubated at room temperature for 30 min in a shaker under the same conditions. Finally, after washing, wash buffer (100 ul/well) was added to the plate and incubated in a shaker for 2 min. The Luminex™ 200 setting were set according to the manufacturer's protocol. The data was calculated with a standard five-parameter logistic nonlinear regression analysis of the data (xPonent software 4.2, USA). The levels of cytokine/chemokine are normalized to the live cell counts (1×10^5 cells/mL) and presented as concentrations per mL (pg/mL or ng/mL).

[1] abbreviates: PBMC + LPS(5 ug/ml) + test article 0.001 uM, Mean.
The mark [2] stands for this setting: PBMC + LPS(5 ug/ml) + test article 0.001 uM, single replicates.
[3] abbreviates: PBMC + LPS(5 ug/ml) + test article 0.01 uM, Mean.
The mark [4] stands for this setting: PBMC + LPS(5 ug/ml) + test article 0.01 uM, single replicates.
The mark [5] stands for this setting: PBMC + LPS(5 ug/ml) + test article 0.1 uM, Mean.
Setting [6] is: PBMC + LPS(5 ug/ml) + test article 0.1 uM, single replicates.
Setting [7] is: PBMC + LPS(5 ug/ml) + test article 1 uM, Mean.
[8] abbreviates: PBMC + LPS(5 ug/ml) + test article 1 uM, single replicates.
Where [9] appears, read: PBMC + LPS(5 ug/ml) + test article 10 uM, Mean.
[10] abbreviates: PBMC + LPS(5 ug/ml) + test article 10 uM, single replicates.
[11] abbreviates: PBMC + LPS(5 ug/ml) + test article 100 uM, Mean.
[12] abbreviates: PBMC + LPS(5 ug/ml) + test article 100 uM, single replicates.

Several values for one entry are separate records, joined by “and”; a condition that tells them apart may be missing. Equal entries are not always repeated. Where a SMILES comes first, the peptide text is derived from it. [ ]: non-standard residue; d: D form. Hyp = O=C(O)[C@@H]1C[C@@H](O)CN1

With `CC(C)C[C@H](NC(=O)CNC(=O)[C@H](CC(C)C)NC(=O)[C@H](CCC(N)=O)NC(=O)CNC(=O)[C@@H]1C[C@@H](O)CN1)C(=O)N[C@@H](C)C(=O)NCC(=O)N1CCC[C@H]1C(=O)N[C@@H](CCCCN)C(=O)O` [YDE-011] (H-[Hyp]GQLGLAGPK-OH), the IL-2 conc/live cell worked out at 0.0 pg/10^5 under setting [1]; 0.0 pg/10^5 under setting [2]; 0.0 pg/10^5 under setting [3]; 0.0 pg/10^5 under setting [4]; 0.0 pg/10^5 under setting [5]; 0.0 pg/10^5 under setting [6]. For the same compound, the IL-2 conc/live cell is, setting by setting: under setting [7], 0.0 pg/10^5; under setting [8], 0.0 pg/10^5; under setting [9], 0.0 pg/10^5; under setting [10], 0.0 pg/10^5; under setting [11], 0.0 pg/10^5; under setting [12], 0.0 pg/10^5. For the same compound, the “MFI, Bead name: IL-2” value runs as follows: under setting [1], 4.0; under setting [2], 4.0; under setting [3], 5.0; under setting [4], 5.0; under setting [5], 6.7; under setting [6], 7.0 and 8.0 and 5.0. Besides, the “MFI, Bead name: IL-2” value reads like this: under setting [7], 5.3; under setting [8], 6.0 (2×) and 4.0; under setting [9], 5.3; under setting [10], 6.0 and 5.0 (2×); under setting [11], 4.0; under setting [12], 4.0 and 2.0 and 6.0.
As for `CC(C)C[C@H](NC(=O)[C@H](CCC(N)=O)NC(=O)CNC(=O)[C@@H]1C[C@@H](O)CN1)C(=O)NCC(=O)O` [YDE-043] (H-[Hyp]GQLG-OH; N-terminus and C-terminus assumed), the IL-2 conc/live cell is 0.0 pg/10^5 under setting [1]; 0.0 pg/10^5 under setting [2]; 0.0 pg/10^5 under setting [3]; 0.0 pg/10^5 under setting [4]; 0.0 pg/10^5 under setting [5]; 0.0 pg/10^5 under setting [6]. Moreover, the IL-2 conc/live cell by setting is: under setting [7], 0.0 pg/10^5; under setting [8], 0.0 pg/10^5; under setting [9], 0.0 pg/10^5; under setting [10], 0.0 pg/10^5; under setting [11], 0.0 pg/10^5; under setting [12], 0.0 pg/10^5. In addition, the “MFI, Bead name: IL-2” value was 6.3 under setting [1]; 3.0 and 8.0 (2×) under setting [2]; 4.7 under setting [3]; 6.0 and 4.0 (2×) under setting [4]; 5.7 under setting [5]; 6.0 and 3.0 and 8.0 under setting [6]. Also, the “MFI, Bead name: IL-2” value is 3.0 under setting [7]; 3.0 and 2.0 and 4.0 under setting [8]; 3.3 under setting [9]; 3.0 and 2.0 and 5.0 under setting [10]; 2.0 under setting [11]; 2.0 under setting [12].
